Reference: paper PMC3006138, “Fexinidazole – A New Oral Nitroimidazole Drug Candidate Entering Clinical Development for the Treatment of Sleeping Sickness” (PLoS Neglected Tropical Diseases, 2010)
“And” between values parts separate entries of the source, which are not always exact repeats. Equal values may be shown once. Read-outs that look alike come from different tables or passages of the source. Values belong to the molecule of their own block, whether it stands above or below them.

Key:
rat liver cells = test: Ex vivo unscheduled DNA synthesis; type: in vivo; conditions: 75 mg/kg, positive control
Procedure: Groups of young male Sprague-Dawley rats received fexinidazole at doses of 500, 1000, or 2000 mg/kg orally, and the livers were sampled either 2–4 h or 12–14 h after administration. Hepatocyte suspensions were prepared and incubated in the presence of […] thymidine. Slides of fixed hepatocytes were coated in photographic emulsion and stored for 14 days at 4°C in the dark. The silver grains above the nuclei or cytoplasm (background) were counted, providing a measure of DNA uptake during DNA repair. The difference between these two counts indicated the extent of DNA repair (nuclear net grain count).

[1] = Hepatocyte intrinsic clearance and metabolite profile; type: in vitro ADME, mouse; conditions: male, CD-1, mouse, cryopreserved hepatocytes, 1 µM
Procedure: (§1) Fexinidazole was incubated with cryopreserved hepatocytes from male CD-1 mice, male Sprague Dawley rats, male beagle dogs, male cynomolgus monkeys, and from pooled white or African-American human donor samples (purchased commercially), at concentrations of 1 µM and 10 µM. […] The incubated samples were analyzed by LC-MS after extraction into acetonitrile.
(§2) A quality control analysis of fexinidazole was performed via 1H-NMR in DMSO and LC- […]
(§3) provided by the Swiss Tropical Institute (Basel, Switzerland).
(§4) Reagents and solvents were of analytical grade and obtained from Sigma-Aldrich (St. Louis, […]
(§5) Cryopreserved hepatocytes from the male CD1 mouse, lot CSI; male Sprague Dawley rat, lot LPL; male beagle dog, lot BWX; male cynomolgus monkey, lot EHH; and pooled human samples, lot MJI, were purchased from In Vitro Technologies Inc (Baltimore, Maryland, […]
(§6) 5.4. In vitro Incubations
(§7) On the day of the experiment a 10 mM stock solution of fexinidazole in DMSO was prepared and, within 3 hours, aliquots of this freshly prepared solution, after suitable dilution, were added to the incubation matrix, to reach fexinidazole final concentrations of 1 and 10 µM. The final percentage of DMSO was 0.01% in the incubation samples for the […]
(§8) On the day of experiment, the cryopreserved hepatocytes were thawed following the detailed instructions provided by the supplier.
(§9) The number of viable cells was determined using a Trypan Blue exclusion method.
(§10) 5.4.1. Intrinsic Clearance Study […]
(§11) µM with mouse, rat, dog, monkey and human hepatocytes (300000 cells/mL for the mouse and 1 million cells/mL for the other species) in a final incubation volume of 0.75 mL […]
(§12) Incubations were performed in duplicate in a 48-well plate under shaking. Sampling was performed using an automatic liquid handling system (Multiprobe II EX, Packard). At 0, 1, 5, 10, 15, 20, 30, 60 and 120 minutes, 50 µL aliquots of the incubates were taken, then 80 µL of ice-cold acetonitrile and 20 µL of 1 µM warfarin in acetonitrile (internal standard) were added, and samples centrifuged at 2000 rpm for 20 min. The supernatant was analyzed by LC-MS/MS. […]
(§13) the medium alone at t = 0 and 120 minutes.
(§14) For the determination of phase I and phase II activity of hepatocytes, 7-ethoxycoumarin (7-EC) 1 µM, and 7-hydroxycoumarin (7-HC) 30 µM were used as positive controls and incubated under the same conditions as fexinidazole. Aliquots of incubates were taken at 0, 10, 20, 30, 60 and 120 minutes and processed as fexinidazole samples.
(§15) 5.4.2. Metabolite Profile Study
(§16) For metabolite profiling, fexinidazole was incubated at a concentration of 10 µM with mouse, rat, dog, monkey and human hepatocytes (300000 cells/mL for the mouse and 1 million cells/mL for the other species) in a final incubation volume of 2 mL Leibovitz L-15 […]
(§17) Aliquots of the incubation samples were taken at t = 0, 30 and 120 minutes; the metabolism was stopped by the addition of an equal volume of cold acetonitrile and the samples centrifuged at 1500 rpm for 20 min. The supernatant was stored at -20°C until analysis. Control incubations were performed with the compound in the medium alone […]
(§18) 5.5. Analysis of Samples for Intrinsic Clearance Determination
(§19) The analysis of the samples for intrinsic clearance determination was performed by an LC-MS/MS method, using the following conditions:
(§20) HPLC Equipment and Conditions
(§21) HPLC system Agilent 1100 binary pump (Agilent, Palo Alto, USA)
(§22) Autosampler CTC Pal (Alfatech, San Jose, USA)
(§23) Analytical column Guard Column SB-C8 4.6 x 12.5 mm, 5 µm (Zorbax)
(§24) Column temperature ambient
(§25) Mobile phase A 10 mM ammonium formate pH 4.0: acetonitrile (95:5, v:v)
(§26) Mobile phase B 10 mM ammonium formate pH 4.0: acetonitrile (5:95, v:v) […]
(§27) Gradient conditions Step Total time (min) flow (µL/min) %A % B […]
(§28) MS Equipment and Conditions
(§29) Mass spectrometer API 4000 Triple Quadrupole (MDS-Sciex, Toronto, […]
(§30) Source Turbo Ion Spray (TIS)
(§31) Ion mode Positive for fexinidazole and 7-EC.
(§32) Negative for 7-HC, 7-HC sulphate and 7-HC glucuronide.

[2] = as above; type: in vitro ADME, rat; conditions: male, Sprague Dawley, rat, cryopreserved hepatocytes, 1 µM
Procedure: as §1, §2, §3, §4, §5, §6, §7, §8, §9, §10, §11, §12, §13, §14, §15, §16, §17, §18, §19, §20, §21, §22, §23, §24, §25, §26, §27, §28, §29, §30, §31, §32

[3] = as above; type: in vitro ADME, dog; conditions: male, beagle, dog, cryopreserved hepatocytes, 1 µM
Procedure: as §1, §2, §3, §4, §5, §6, §7, §8, §9, §10, §11, §12, §13, §14, §15, §16, §17, §18, §19, §20, §21, §22, §23, §24, §25, §26, §27, §28, §29, §30, §31, §32

[4] = as above; type: in vitro ADME, cynomolgus monkey; conditions: male, cynomolgus, cynomolgus monkey, cryopreserved hepatocytes, 1 µM
Procedure: as §1, §2, §3, §4, §5, §6, §7, §8, §9, §10, §11, §12, §13, §14, §15, §16, §17, §18, §19, §20, §21, §22, §23, §24, §25, §26, §27, §28, §29, §30, §31, §32

[5] = as above; type: in vitro ADME, human; conditions: human, cryopreserved pooled hepatocytes, 1 µM
Procedure: as §1, §2, §3, §4, §5, §6, §7, §8, §9, §10, §11, §12, §13, §14, §15, §16, §17, §18, §19, §20, §21, §22, §23, §24, §25, §26, §27, §28, §29, §30, §31, §32

[6] = as above; type: in vitro ADME, human; conditions: human
Procedure: as §1
Fexinidazole sulfoxide, lot 1106-I-0170, 99.3% purity, and fexinidazole sulfone, lot 1106-I-0171, 99.9% purity, were provided by the Sponsor.
Cryopreserved hepatocytes of five single donors, lots EHI, REL, KSE […]
ZIJ and MRS, were purchased from In Vitro Technologies Inc (Baltimore, Maryland, USA).
The certificates of analysis are reported in Appendix 1.
as §4
7.5. In Vitro Incubations
as §7
The cryopreserved hepatocytes were thawed according to the supplier’s procedure and the number of viable cells was determined using the Trypan Blue exclusion method. Viabilities were 92% for lot EHI, 89% for lot REL, 82% for lot KSE, 86% for lot ZIJ and 86% for lot MRS in the intrinsic clearance study. In the metabolite profile study viabilities were 91% for lot EHI, 90% for lot REL, 85% for lot KSE, 84% for lot ZIJ and 87% for lot MRS.
Afterwards, the same amount of viable cells for each donor were pooled and used for the incubations of fexinidazole.
7.5.1. Intrinsic Clearance Study […]
as §12, with “µM with pooled human hepatocytes (1 million cells/mL) in a final incubation volume of 1 mL Leibovitz L-15 medium, at 37°C. Incubations” for “Incubations”
The chemical stability of fexinidazole was checked by incubating the compound at 37°C in the medium alone at t = 0 and 120 minutes.
For the determination of phase I and phase II activities of hepatocytes, 7-ethoxycoumarin (7-ETC) 1 µM, and 7-hydroxycoumarin (7-HC) 30 µM were used as positive controls and incubated under the same conditions as fexinidazole. Aliquots of incubates were taken at 0, 1, 5, 10, 15, 20, 30, 60 and 120 minutes and processed as fexinidazole samples.
7.5.2. Metabolite Profile Study
For metabolite profiling, fexinidazole was incubated at a concentration of 10 µM with pooled human hepatocytes (1 million cells/mL) in a final incubation volume of 2 mL Leibovitz L-15 medium, at 37°C. Aliquots of the incubation samples were taken at t = 0, 30 and 120 minutes; the metabolism was stopped by the addition of an equal volume of cold acetonitrile and the samples centrifuged at 1100 rpm for 20 min. The supernatant was stored at -20°C until analysis. Control incubations were performed with the compound in the medium alone for 120 minutes.
7.6. Analysis of the Samples of Intrinsic Clearance Study
as §19, §20
HPLC system 1100 binary pump (Agilent, Palo Alto, USA)
Autosampler 2777 (Waters)
as §23, §24, §25, §26, §27

human lymphocytes = test: In vitro micronucleus test; type: cell-based; conditions: 6.25 µg/mL, +S9, positive control
Procedure: Duplicate human lymphocyte cultures were prepared from the pooled blood of two donors in two independent experiments. […] The test concentrations for micronucleus analysis were selected by evaluating the effect of fexinidazole on the replication index (RI). In each experiment, micronuclei were analysed at three concentrations. Similar tests were carried out on fexinidazole sulfone. As per the Ames test, this was carried out in the absence of rat liver S9 only.

[7] = tested on: bone marrow polychromatic erythrocytes; test: In vivo bone marrow micronucleus test; design: species or system mouse; conditions: 4.0 mg/kg, positive control
Procedure: Groups of six young adult male Crl:CD-1 (ICR) mice were treated with fexinidazole at two oral doses of 0, 500, 1000, or 2000 mg/kg given 24 h apart, and bone marrows were harvested 24 h after the second dose. Slides of bone marrow cells were prepared, Giemsa stained, and 2000 polychromatic erythrocytes per animal were scored for micronuclei.

[8] = tested on: T. b. rhodesiense (STIB 900); test: In vitro trypanocidal assay (Alamar Blue); type: cell-based, Trypanosoma brucei rhodesiense; conditions: Trypanosoma brucei, 72 h; read-out: IC50
Procedure: (§33) 10 µL of Alamar Blue was added for the final 3 h to determine viability. […] The IC50 values were calculated from the sigmoidal inhibition curves. For cytotoxicity, 4×10^4/mL L-6 rat skeletal myoblast cells were used, and incubations and assessments carried out as above.

[9] = tested on: T. b. gambiense (STIB 930); test: In vitro trypanocidal assay (Alamar Blue); type: cell-based, Trypanosoma brucei gambiense; conditions: Trypanosoma brucei, 72 h; read-out: IC50
Procedure: Parasites were cultured with or without the test article at a concentration of 3×10^4/mL in Minimal Essential Medium, according to Baltz et al., with the following modifications: 0.2 mM 2-mercaptoethanol, 1 mM Na-pyruvate, 0.5 mM hypoxanthine and 15% heat inactivated horse serum at 37°C in 5% CO2 in 96-well microtitre plates for 72 h. 10 µL of Alamar Blue was added for the final 3 h to determine viability. The assay was assessed by reading the fluorescence in each well at an excitation wavelength of 536 nm and at an emission wavelength of 588 nm. The IC50 values were calculated from the sigmoidal inhibition curves. For cytotoxicity, 4×10^4/mL L-6 rat skeletal myoblast cells were used, and incubations and assessments carried out as above.

L-6 rat myoblast cells = test: Cytotoxicity assay; type: cell-based; conditions: 72 h, read-out: IC50
Procedure: as §33

Structure (SMILES): CC(=O)Nc1ccc2c(c1)Cc1ccccc1-2 [2-acetamidofluorene, reference compound]
Net nuclear grain count (12–14 h) (rat liver cells): 9.8

half-life at 1 µM [1]: 2.6 min
CLint scaled at 1 µM ([1]; read-out: CLint in vitro): 2380 mL/min/kg
hepatocyte CLint at 1 µM ([1]; read-out: CLint in vitro): 901 µL/min/1e6 cells
half-life at 1 µM [2]: 13.2 min
CLint scaled at 1 µM ([2]; read-out: CLint in vitro): 251 mL/min/kg
hepatocyte CLint at 1 µM ([2]; read-out: CLint in vitro): 52.4 µL/min/1e6 cells
half-life at 1 µM [3]: 1.7 min
CLint scaled at 1 µM ([3]; read-out: CLint in vitro): 3110 mL/min/kg
hepatocyte CLint at 1 µM ([3]; read-out: CLint in vitro): 405 µL/min/1e6 cells
half-life at 1 µM [4]: 2.5 min
CLint scaled at 1 µM ([4]; read-out: CLint in vitro): 1480 mL/min/kg
hepatocyte CLint at 1 µM ([4]; read-out: CLint in vitro): 272 µL/min/1e6 cells
half-life at 1 µM [5]: 4.8 min
CLint scaled at 1 µM ([5]; read-out: CLint in vitro): 345 mL/min/kg
hepatocyte CLint at 1 µM ([5]; read-out: CLint in vitro): 144 µL/min/1e6 cells
half-life at 1 µM [6]: 6.4 min
CLint scaled at 1 µM ([6]; read-out: CLint in vitro): 258 mL/min/kg
hepatocyte CLint at 1 µM ([6]; read-out: CLint in vitro): 108 µL/min/1e6 cells
Structure (SMILES): CCOc1ccc2ccc(=O)oc2c1 [7-ethoxycoumarin, reference compound]

Structure (SMILES): O=P1(N(CCCl)CCCl)NCCCO1 (centres unmarked) [Cyclophosphamide, reference compound]
Micronucleated binucleate cells (human lymphocytes; 24-h PHA): 3.60%
Micronucleated binucleate cells (human lymphocytes; 48-h PHA): 12.85%
Micronucleated PCE/1000 [7]: 19.3
PCE/NCE [7]: 0.89

Structure (SMILES): NCCCC(N)(C(=O)O)C(F)F (centres unmarked) [Eflornithine]
IC50 [8]: 0.9 µg/mL and 3.8 µM
IC50 [9]: 0.4 µg/mL and 1.67 µM
IC50 (L-6 rat myoblast cells): 12 µg/mL and 51 µM
